SMILES strings stand for the structures. Positions of bridges follow the written chain, without caps; N, C: chain ends. Non-standard residues stand in square brackets, D forms with d. Residues, ends and D or L forms follow the SMILES beside them. 2Thi = N[C@@H](Cc1cccs1)C(=O)O; Cha = N[C@@H](CC1CCCCC1)C(=O)O; Nva = CCC[C@H](N)C(=O)O

The target of the assay is T1, endothelin receptor (Bos taurus, UniProt P28088).
T1 construct: the suspension was used as a membrane fraction liquid; from tissue; host or cells: bovine cerebellum membrane fraction
T1 sequence (P28088 27-441): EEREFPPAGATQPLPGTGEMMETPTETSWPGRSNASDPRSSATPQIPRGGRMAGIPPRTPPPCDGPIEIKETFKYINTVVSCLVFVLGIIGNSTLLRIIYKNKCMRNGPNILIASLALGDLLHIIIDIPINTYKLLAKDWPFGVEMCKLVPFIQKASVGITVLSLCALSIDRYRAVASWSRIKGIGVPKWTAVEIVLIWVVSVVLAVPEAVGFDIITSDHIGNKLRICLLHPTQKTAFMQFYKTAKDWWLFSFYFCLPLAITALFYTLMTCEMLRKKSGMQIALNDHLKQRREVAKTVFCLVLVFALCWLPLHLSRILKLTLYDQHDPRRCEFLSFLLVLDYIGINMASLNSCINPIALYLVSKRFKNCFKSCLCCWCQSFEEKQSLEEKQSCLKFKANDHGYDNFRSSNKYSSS
The experiment in a line: Endothelin receptor-antagonizing activity: inhibition of 125I-endothelin-1 binding to bovine cerebellum membrane fraction. As to conditions: 125I-Endothelin-1, bovine cerebellum membrane fraction, 25° C. for 2 hours; read-out: IC50: Concentration causing 50% inhibition of endothelin1 binding. The method, then:
Bovine cerebellum tissue was homogenized at 4° C. by using POLYTRON (type PT10/35, manufactured by Kinematic Gmbh Co.) in a buffer solution A (1 mM NaHCO3, 5 mM ethylenediaminetetraacetic acid, 5 μg/ml leupeptin, 5 μg/ml pepstatin A, 40 μM phenylmethylsulfonyl fluoride, pH 8.3).
The obtained suspension was centrifuged for 10 minutes at 8,000 G and 4° C., and the resulting supernatant was centrifuged for 60 minutes at 40,000 G and 4° C. to obtain pellets. The obtained pellets were suspended in a buffer solution A and again centrifuged for 60 minutes at 40,000 G and 4° C. The resulting solid substance was prepared as a suspension containing 2 mg/ml of protein, and the suspension was used as a membrane fraction liquid. […] These mixtures were incubated at 25° C. for 2 hours, and then filtered with a GF/B glass filter (produced by Whatman Co.). […] The inhibition ratio against endothelin receptor binding activity was calculated according to the following equation:
Inhibition ratio (%)=(C-A/C-B)×100
B: Radioactivity in the presence of unlabelled endothelin-1
C: Radioactivity in the absence of both of the compound shown in Table 2 and unlabelled endothelin-1
Turning to `CC[C@H](C)[C@H](NC(=O)[C@H](CC(=O)O)NC(=O)[C@H](CC(C)C)NC(=O)[C@H](Cc1c[nH]cn1)NC(=O)[C@H](C)NC(=O)[C@H](Cc1ccccc1)NC(=O)[C@H](Cc1ccc(O)cc1)NC(=O)[C@@H](NC(=O)[C@H](Cc1c[nH]c2ccccc12)NC(=O)[C@@H]1CSSC[C@H](N)C(=O)N[C@@H](CC(N)=O)C(=O)N[C@@H](Cc2c[nH]c3ccccc23)C(=O)N[C@@H](Cc2c[nH]cn2)C(=O)NCC(=O)N[C@@H]([C@@H](C)O)C(=O)N[C@@H](C)C(=O)N2CCC[C@H]2C(=O)N1)C(C)C)C(=O)N[C@H](C(=O)N[C@@H](Cc1c[nH]c2ccccc12)C(=O)O)[C@@H](C)CC` [Compound 33] (H-CNWHGTAPCWVYFAHLDIIW-OH; disulfide 1-9), the IC50 amounted to 0.16 nM.

With `CC[C@H](C)[C@H](NC(=O)[C@H](Cc1cccs1)NC(=O)[C@@H](NC(=O)[C@H](CC(C)C)NC(=O)[C@H](Cc1c[nH]cn1)NC(=O)[C@H](C)NC(=O)[C@H](Cc1ccccc1)NC(=O)[C@H](Cc1ccc(O)cc1)NC(=O)[C@@H](NC(=O)[C@H](Cc1c[nH]c2ccccc12)NC(=O)[C@@H]1CSSC[C@H](N)C(=O)N[C@@H](CC(=O)O)C(=O)N[C@@H](Cc2c[nH]c3ccccc23)C(=O)N[C@@H](CCCCN)C(=O)NCC(=O)N[C@@H]([C@@H](C)O)C(=O)N[C@@H](CO)C(=O)N2CCC[C@H]2C(=O)N1)C(C)C)[C@@H](C)O)C(=O)N[C@@H](Cc1c[nH]c2ccccc12)C(=O)O` [Compound 35] (H-CDWKGTSPCWVYFAHLT[2Thi]IW-OH; disulfide 1-9), the IC50 came to 1.6 nM.

As for `CC[C@H](C)[C@H](NC(=O)[C@H](CC(C)C)NC(=O)[C@@H](NC(=O)[C@H](CC(C)C)NC(=O)[C@H](Cc1c[nH]cn1)NC(=O)[C@H](C)NC(=O)[C@H](Cc1ccccc1)NC(=O)[C@H](Cc1ccc(O)cc1)NC(=O)[C@@H](NC(=O)[C@H](Cc1c[nH]c2ccccc12)NC(=O)[C@@H]1CSSC[C@H](N)C(=O)N[C@@H](CC(N)=O)C(=O)N[C@@H](Cc2c[nH]c3ccccc23)C(=O)N[C@@H](Cc2c[nH]cn2)C(=O)NCC(=O)N[C@@H]([C@@H](C)O)C(=O)N[C@@H](C)C(=O)N2CCC[C@H]2C(=O)N1)C(C)C)[C@@H](C)O)C(=O)N[C@@H](Cc1c[nH]c2ccccc12)C(=O)O` [Compound 37] (H-CNWHGTAPCWVYFAHLTLIW-OH; disulfide 1-9), the IC50 stood at 8.7 nM.

As for `CC[C@H](C)[C@H](NC(=O)[C@H](CC1CCCCC1)NC(=O)[C@@H](NC(=O)[C@H](CC(C)C)NC(=O)[C@H](Cc1c[nH]cn1)NC(=O)[C@H](C)NC(=O)[C@H](Cc1ccccc1)NC(=O)[C@H](Cc1ccc(O)cc1)NC(=O)[C@@H](NC(=O)[C@H](Cc1c[nH]c2ccccc12)NC(=O)[C@@H]1CSSC[C@H](N)C(=O)N[C@@H](CC(N)=O)C(=O)N[C@@H](Cc2c[nH]c3ccccc23)C(=O)N[C@@H](Cc2c[nH]cn2)C(=O)NCC(=O)N[C@@H]([C@@H](C)O)C(=O)N[C@@H](C)C(=O)N2CCC[C@H]2C(=O)N1)C(C)C)[C@@H](C)O)C(=O)N[C@@H](Cc1c[nH]c2ccccc12)C(=O)O` [Compound 39] (H-CNWHGTAPCWVYFAHLT[Cha]IW-OH; disulfide 1-9), the IC50 was found to be 280 nM.

Consider `CC[C@H](C)[C@H](NC(=O)[C@H](CC(C)C)NC(=O)[C@@H](NC(=O)[C@H](CC(C)C)NC(=O)[C@H](Cc1c[nH]cn1)NC(=O)[C@H](C)NC(=O)[C@H](Cc1ccccc1)NC(=O)[C@H](Cc1ccc(O)cc1)NC(=O)[C@@H](NC(=O)[C@H](Cc1c[nH]c2ccccc12)NC(=O)[C@@H]1CC(=O)NCC(=O)N[C@@H](CC(N)=O)C(=O)N[C@@H](Cc2c[nH]c3ccccc23)C(=O)N[C@@H](Cc2c[nH]cn2)C(=O)NCC(=O)N[C@@H]([C@@H](C)O)C(=O)N[C@@H](C)C(=O)N2CCC[C@H]2C(=O)N1)C(C)C)[C@@H](C)O)C(=O)N[C@@H](Cc1c[nH]c2ccccc12)C(=O)O` [Compound 40] (GNWHGTAPDWVYFAHLTLIW-OH; lactam N-9), for which the IC50 is 34 nM.

Take `CC[C@H](C)[C@H](NC(=O)[C@H](Cc1cccs1)NC(=O)[C@@H](NC(=O)[C@H](CC(C)C)NC(=O)[C@H](Cc1c[nH]cn1)NC(=O)[C@H](C)NC(=O)[C@H](Cc1ccccc1)NC(=O)[C@H](Cc1ccc(O)cc1)NC(=O)[C@@H](NC(=O)[C@H](Cc1c[nH]c2ccccc12)NC(=O)[C@@H]1CC(=O)NCC(=O)N[C@@H](CC(N)=O)C(=O)N[C@@H](Cc2c[nH]c3ccccc23)C(=O)N[C@@H](Cc2c[nH]cn2)C(=O)NCC(=O)N[C@@H]([C@@H](C)O)C(=O)N[C@@H](C)C(=O)N2CCC[C@H]2C(=O)N1)C(C)C)[C@@H](C)O)C(=O)N[C@@H](Cc1c[nH]c2ccccc12)C(=O)O` [Compound 41] (GNWHGTAPDWVYFAHLT[2Thi]IW-OH; lactam N-9): the IC50 is 2.5 nM.

With `CC[C@H](C)[C@H](NC(=O)[C@H](Cc1cccs1)NC(=O)[C@@H](NC(=O)[C@H](CC(C)C)NC(=O)[C@H](Cc1c[nH]cn1)NC(=O)[C@H](C)NC(=O)[C@H](Cc1ccccc1)NC(=O)[C@H](Cc1ccc(O)cc1)NC(=O)[C@@H](NC(=O)[C@H](Cc1c[nH]c2ccccc12)NC(=O)[C@H](CC(=O)O)NC(=O)[C@@H]1CCCN1C(=O)[C@H](C)NC(=O)[C@@H](NC(=O)CNC(=O)[C@H](Cc1c[nH]cn1)NC(=O)[C@H](Cc1c[nH]c2ccccc12)NC(=O)[C@H](CC(N)=O)NC(=O)CN)[C@@H](C)O)C(C)C)[C@@H](C)O)C(=O)N[C@H](Cc1c[nH]c2ccccc12)C(=O)O` [Compound 42, HGlyAsnTrpHisGlyThrAlaProAspTrpValTyrPheAlaHisLeuThrThiIleD-TrpOH] (H-GNWHGTAPDWVYFAHLT[2Thi]I[dW]-OH), the IC50 was 210 nM.

Regarding `CCC[C@H](NC(=O)[C@@H](Cc1c[nH]c2ccccc12)NC(=O)[C@H](C)NC(=O)[C@H](Cc1ccccc1)NC(=O)[C@H](Cc1ccc(O)cc1)NC(=O)[C@@H](NC(=O)[C@H](Cc1c[nH]c2ccccc12)NC(=O)[C@H](CC(=O)O)NC(=O)[C@@H]1CCCN1C(=O)[C@H](C)NC(=O)[C@@H](NC(=O)CNC(=O)[C@H](Cc1c[nH]cn1)NC(=O)[C@H](Cc1c[nH]c2ccccc12)NC(=O)[C@H](CC(N)=O)NC(=O)CN)[C@@H](C)O)C(C)C)C(=O)N[C@@H](CCC(=O)O)C(=O)N[C@H](C(=O)N[C@@H](C(=O)N[C@@H](Cc1c[nH]c2ccccc12)C(=O)O)[C@H](C)CC)[C@@H](C)CC` [Compound 44, HGlyAsnTrpHisGlyThrAlaProAspTrpValTyrPheAlaD-TrpNvaGluIleD-IleTrpOH] (H-GNWHGTAPDWVYFA[dW][Nva]EI[dI]W-OH), the IC50 turned out to be 290 nM.

For `CC[C@H](C)[C@H](NC(=O)[C@H](CCSC)NC(=O)[C@H](CO)NC(=O)[C@H](CC(C)C)NC(=O)[C@H](Cc1c[nH]cn1)NC(=O)[C@H](C)NC(=O)[C@@H](Cc1ccccc1)NC(=O)[C@H](Cc1ccc(O)cc1)NC(=O)[C@@H](NC(=O)[C@H](Cc1c[nH]c2ccccc12)NC(=O)[C@H](CC(=O)O)NC(=O)[C@@H]1CCCN1C(=O)[C@H](C)NC(=O)[C@@H](NC(=O)CNC(=O)[C@H](Cc1c[nH]cn1)NC(=O)[C@H](Cc1c[nH]c2ccccc12)NC(=O)[C@H](CC(N)=O)NC(=O)CN)[C@@H](C)O)C(C)C)C(=O)N[C@@H](Cc1c[nH]c2ccccc12)C(=O)O` [Compound 45, HGlyAsnTrpHisGlyThrAlaProAspTrpValTyrD-PheAlaHisLeuSerMetIleTrpOH] (H-GNWHGTAPDWVY[dF]AHLSMIW-OH), the IC50 is 3.3 nM.

For the molecule `CC[C@H](C)[C@H](NC(=O)[C@H](Cc1cccs1)NC(=O)[C@@H](NC(=O)[C@H](CC(C)C)NC(=O)[C@H](Cc1c[nH]cn1)NC(=O)[C@H](C)NC(=O)[C@H](Cc1ccccc1)NC(=O)[C@H](Cc1ccc(O)cc1)NC(=O)[C@@H]1CCCN1C(=O)[C@H](Cc1c[nH]c2ccccc12)NC(=O)[C@H](CC(=O)O)NC(=O)[C@@H]1CCCN1C(=O)[C@H](C)NC(=O)[C@@H](NC(=O)CNC(=O)[C@H](Cc1c[nH]cn1)NC(=O)[C@H](Cc1c[nH]c2ccccc12)NC(=O)[C@H](CC(N)=O)NC(=O)CN)[C@@H](C)O)[C@@H](C)O)C(=O)N[C@@H](Cc1c[nH]c2ccccc12)C(=O)O` [Compound 48, HGlyAsnTrpHisGlyThrAlaProAspTrpProTyrPheAlaHisLeuThrThiIleTrpOH] (H-GNWHGTAPDWPYFAHLT[2Thi]IW-OH), the IC50 worked out at 5 nM.

As to `CC[C@H](C)[C@@H]1NC(=O)[C@H](Cc2ccccc2)NC(=O)CNC(=O)C[C@@H](C(=O)N[C@@H](Cc2c[nH]c3ccccc23)C(=O)N[C@H](C(=O)N[C@@H](Cc2ccc(O)cc2)C(=O)N[C@@H](Cc2ccccc2)C(=O)N[C@@H](C)C(=O)N[C@@H](Cc2c[nH]cn2)C(=O)N[C@@H](CC(C)C)C(=O)N[C@@H](CC(=O)O)C(=O)N[C@H](C(=O)N[C@H](C(=O)N[C@@H](Cc2c[nH]c3ccccc23)C(=O)O)[C@@H](C)CC)[C@@H](C)CC)C(C)C)NC(=O)[C@H](CC(N)=O)NC(=O)CNC(=O)[C@H](Cc2c[nH]c3ccccc23)NC(=O)CNC1=O` [Compound 51] (GFIGWGNDWVYFAHLDIIW-OH; lactam N-8), the IC50 came to 3.3 nM.

These data come from patent publication US5631222A, “Endothelin-antagonizing peptide” (Kyowa Hakko Kogyo Co., Ltd., priority 1993, dated 1997).
